Laboratory results taken from ChEMBL document CHEMBL1134098, “Bioisosteric determinants for subtype selectivity of ligands for heteromeric GABA(A) receptors” (Bioorg Med Chem Lett, 2001).

Columns and labels:
Format in all cases: functional, cell-based
Conditions in all cases: Oocyte
[1] = target: GABA-A receptor; alpha-1/beta-3/gamma-2 (Homo sapiens) (UniProt P14867+P18507+P28472); test: Maximal response relative to Gamma-aminobutyric acid A against human Gamma-aminobutyric-acid A receptor alpha-1-beta-3-gamma-2 expressed in Xenopus oocytes
[2] = target: GABA-A receptor; alpha-3/beta-3/gamma-2 (Homo sapiens) (UniProt P18507+P28472+P34903); test: Maximal response relative to Gamma-aminobutyric acid A against human Gamma-aminobutyric-acid A receptor alpha-3-beta-3-gamma-2 expressed in Xenopus oocytes
[3] = target: GABA-A receptor; alpha-6/beta-3/gamma-2 (Homo sapiens, UniProt P18507+P28472+Q16445); test: Maximal response relative to Gamma-aminobutyric acid A against human Gamma-aminobutyric-acid A receptor alpha-6-beta-3-gamma-2 expressed in Xenopus oocytes
[4] = target: GABA-A receptor; alpha-2/beta-3/gamma-2 (Homo sapiens) (UniProt P18507+P28472+P47869); test: Maximal response relative to Gamma-aminobutyric acid A against human Gamma-aminobutyric-acid A receptor alpha-2-beta-3-gamma-2 expressed in Xenopus oocytes
[5] = target: GABA A receptor alpha-4/beta-3/gamma-2 (Homo sapiens, UniProt P18507+P28472+P48169); test: Maximal response relative to Gamma-aminobutyric acid A against human Gamma-aminobutyric-acid A receptor alpha-4-beta-3-gamma-2 expressed in Xenopus oocytes
[6] = target: GABA-A receptor; alpha-5/beta-3/gamma-2 (Homo sapiens) (UniProt P18507+P28472+P31644); test: Maximal response relative to Gamma-aminobutyric acid A against human Gamma-aminobutyric-acid A receptor alpha-5-beta-3-gamma-2 expressed in Xenopus oocytes

Measured: Max

NCCCC(=O)O
100: all assays above
